Measurements from PubChem BioAssay (NCI).
Values joined by “and” are separate entries in the source; they are usually repeats but may differ in a detail not shown here. Equal entries are not always repeated.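 Dose response: 5 concentrations. Exposure: 48 h. Format: 96-well plates. Endpoint: linear interpolation; highest concentration if not reached. GI50 marks 50% less growth. TGI is the concentration that stops growth completely.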

Tests used:
Assay in all cases: NCI tumour cell line growth inhibition, 48 h
[1] = test system: A549 NSCLC
[2] = test system: DLD-1 colon
[3] = test system: DMS 114 small cell lung
[4] = test system: DMS 273 small cell lung
[5] = test system: HCT-116 colon
[6] = test system: HOP-18 NSCLC
[7] = test system: KM20L2 colon
[8] = test system: M19-MEL melanoma
[9] = test system: NCI-H522 lung
[10] = test system: P388/ADR leukemia
[11] = test system: RPMI-8226 leukemia
[12] = test system: SNB-78 CNS
[13] = test system: XF 498 CNS
[14] = test system: TK-10 renal

SMILES | TGI [1] | TGI [2] | TGI [4] | TGI [5] [µM] | TGI [7] | TGI [9] | TGI [11] [µM] | TGI [14] [µM] | further results
CN1C(=O)c2ccccc2NC(=O)c2cnn(C)c21 | > 100 µM | > 100 µM | > 100 µM | > 57.4 | > 100 µM | > 100 µM | > 100 | – | TGI [3]: > 100 µM; TGI [6]: > 100 µM; TGI [8]: > 100 µM; TGI [10]: > 100 µM; TGI [12]: > 100 µM; TGI [13]: > 100 µM
CC1=C(C)C(=O)O[C@@H]([C@](C)(O)[C@]2(O)CC[C@@]3(O)[C@@H]4C[C@H]5O[C@]56[C@@H](O)C=CC(=O)[C@]6(C)[C@H]4CC[C@]23C)C1 | 24 µM and 30.9 µM | 3.36 µM and 3.89 µM | 5.32 µM and 3.13 µM | 2.88 | 4 µM and 1.35 µM | 2.16 µM and 1 µM | – | – | GI50 [2]: 0.666 µM and 0.162 µM; TGI [3]: 0.588 µM and 0.567 µM; GI50 [4]: 1.5 µM and 0.252 µM; TGI [6]: 2.44 µM; GI50 [7]: 0.335 µM and 0.125 µM; GI50 [9]: 0.0804 µM and 0.0721 µM; GI50 [10]: 2.5 µM and 0.487 µM; TGI [10]: 98.8 µM and 250 µM; GI50 [13]: 0.082 µM; TGI [13]: 0.819 µM and 0.8 µM
S=C1SC(=Nc2ccccc2)C(=Nc2ccccc2)N1c1ccccc1 | – | – | – | > 100 | – | > 100 µM | > 100 | – | –
O=C(O)CNC(=O)CO/N=C1/C(c2c(O)[nH]c3ccccc23)=Nc2ccccc21 | > 100 µM | – | – | > 100 | – | > 100 µM | > 100 | > 100 | –
COCO[C@@H]1C[C@H]2C(O)Nc3ccccc3C(=O)N2C1 (some centres not stated) | > 100 µM | – | – | – | – | – | > 100 | > 100 | –
CCSc1nc(N)c2c(-c3ccc(OC)c(OC)c3)c3c(nc2n1)CCCC3 | > 100 µM | – | – | > 100 | – | – | > 100 | > 100 | –
CCC(=O)Nc1ccc(N=Cc2cccc(Oc3ccccc3)c2)cc1 | > 100 µM | – | – | > 100 | – | > 100 µM | 63.1 | – | –
COCc1nc2c(OC)cc(-c3nc4nc(N5CCN(C)CC5)ccc4[nH]3)c(OC)c2[nH]1 | > 100 µM | – | – | > 100 | – | > 100 µM | – | > 100 | –
Cc1cc(NC(=S)Nc2ccccc2)c(NC(=S)Nc2ccccc2)cc1C | > 100 µM | > 100 µM | > 100 µM | > 100 | > 92 µM | 32.4 µM | 40.4 | – | TGI [6]: > 100 µM; TGI [8]: > 100 µM; TGI [10]: 19.1 µM; TGI [13]: 84 µM
CC(C)=CC1C(COC(=O)c2cc3c(cc2Cl)OCO3)C1(C)C (configuration not stated) | > 100 µM | – | – | > 100 | – | 46.4 µM | – | > 100 | –
COC(=O)CCC(=O)CC(=O)C1=NS(=O)(=O)c2nc(S(N)(=O)=O)c(Cl)cc2N1 | > 100 µM | > 100 µM | > 100 µM | > 100 | > 100 µM | > 100 µM | > 100 | > 100 | TGI [3]: > 100 µM; TGI [6]: > 100 µM; TGI [8]: > 100 µM; TGI [13]: > 100 µM
CC1C(=O)OC2CC[N+]3(CC(=O)c4ccc(Br)cc4)CC=C(COC(=O)C(C)(O)C1(C)O)C23 (configuration not stated) | > 375 µM | > 375 µM | > 375 µM | > 375 | > 266 µM | > 375 µM | > 375 | – | TGI [3]: > 375 µM; TGI [6]: > 375 µM; TGI [8]: > 375 µM; TGI [10]: > 375 µM; TGI [12]: > 174 µM; TGI [13]: > 375 µM
CC1=NN(c2cccc(Cl)c2)C2(SCC(=O)N2c2nc3ccccc3s2)/C1=C\c1ccc(Cl)cc1 (configuration not stated) | – | – | – | 31.3 | – | 39.2 µM | 39.5 | > 100 | –
Nc1ccccc1CCCC(=O)O | > 100 µM | – | – | > 100 | – | > 100 µM | > 100 | > 100 | –
Cn1c2ccccc2c2c(-c3ccccc3)[n+]3ccccc3nc21 | > 100 µM | – | – | – | – | 69.7 µM | 40.8 | 85 | –
CN(C)c1ccc(/C=C2/SC(=S)NC2=O)cc1 | > 100 µM | – | – | > 100 | – | > 100 µM | > 100 | 53 | –
O=C1C=CC2(O[C@H](c3ccccc3)[C@@H](c3ccccc3)O2)C(SC(=O)c2ccccc2)C1 (some centres not stated) | 17.4 µM | – | – | 1.53 | – | – | 3.25 | 6.64 | –
O=C(O)CCCCCCC[C@@H]1S[C@H]1CCCCCCO | > 100 µM | > 100 µM | > 100 µM | > 100 | > 100 µM | > 100 µM | > 100 | – | TGI [3]: > 100 µM; TGI [6]: > 100 µM; TGI [8]: > 100 µM; TGI [10]: > 100 µM; TGI [12]: > 100 µM; TGI [13]: > 100 µM
C[n+]1c2ccccc2c(CNc2ccc(S(=O)(=O)N=C(N)N)cc2)c2ccccc21 | > 100 µM | 65.5 µM | 24.2 µM | 27.2 | 59.6 µM | 32.3 µM | 23.5 | > 100 | TGI [3]: 20.8 µM; TGI [8]: 42 µM; TGI [12]: 78.1 µM
COc1cc2c(cc1OCCCOc1cc(-c3ccc(F)cc3)nc(C)n1)N=C[C@@H]1CCCN1C2=O | 43 µM | – | – | 30.6 | – | 37.2 µM | > 100 | 34.5 | –
CC(C)(C)NCc1cc(Nc2ccnc3cc(Cl)ccc23)cc(-c2ccc(Cl)cc2)c1O | 20.6 µM | – | – | 5.79 | – | 7.51 µM | 4.12 | 7.76 | –
COc1cc(O)cc(/C=C/c2ccc(O)cc2)c1 | > 100 µM | – | – | > 100 | – | > 100 µM | 25.7 | 93.6 | –
Cc1ccc(CC(=O)Nc2ccc(NC(=O)/C=C/NC(=O)/C=C/c3ccc(-c4ccccc4)cc3)cc2C(=O)c2ccccc2)cc1 | 4.32 µM | – | – | 2.96 | – | – | 14.7 | 8.72 | –
